According to PMC9127750, “Structure-based design of CDC42 effector interaction inhibitors for the treatment of cancer” (Cell reports, 2022):
Several values for one entry are separate records, joined by “and”; a condition that tells them apart may be missing. Equal entries are not always repeated.

System: WM3248 melanoma cells, 486 antibodies
Assay: Reverse phase protein arrays (RPPA)
Format: cell-based, Human
Source text: Pellets were snap frozen in liquid nitrogen and shipped to MD Anderson Cancer Center core RPPA facility for RPPA analysis (Table S5). Three biological replicates for each sample were generated.
Nomenclatures on the RPPA heatmaps: name_of_antibody.species_of_antibody.status_of_antibody. V - antibody validated; C - validation of antibody in progress; Q - antibody nonspecific; E – under evaluation; antibodies raised in M - mouse, G - goat, R - rabbit, or T - rat.

[1] = Norm_5: replicates 1-3 and Average, relative to 0
[2] = Norm_5, replicates 1-3 and Average, relative to Norm_0

CN(C)c1cccc(Nc2cc(-c3ccccc3)nc(C3CCNCC3)n2)c1 [ARN22089, N1,N1-dimethyl-N3-(6-phenyl-2-(piperidin-4-yl)pyrimidin-4-yl)benzene-1,3-diamine]
RSK1.R.V normalized RPPA signal [1]: 1.085 and 0.967 and 1.032
RSK.R.C normalized RPPA signal [1]: 1.076 and 1.100
Rab11.R.C normalized RPPA signal [1]: 1.016 and 1.047 and 1.025 and 1.029
Rab25.R.V normalized RPPA signal [1]: 0.979 and 1.011 and 0.966 and 0.985
Rad17_pS645.R.V normalized RPPA signal [1]: 0.979 and 0.856 and 0.975
Rad23A.R.C normalized RPPA signal [1]: 0.977 and 1.149 and 0.762 and 0.963
Rad50.R.V normalized RPPA signal [1]: 1.246 and 0.924 and 1.080
Rad51.R.C normalized RPPA signal [1]: 0.775 and 0.822 and 0.890 and 0.829
Raptor.R.V normalized RPPA signal [1]: 0.903 and 1.058 and 0.970
Rb.M.Q normalized RPPA signal [1]: 0.962 and 0.918 and 0.956 and 0.945
Rb_pS807_S811.R.V normalized RPPA signal [1]: 0.882 and 1.011 and 0.977
Rheb.M.C normalized RPPA signal [1]: 1.004 and 1.059 and 1.001 and 1.021
Rictor.R.C normalized RPPA signal [1]: 1.004 and 0.961 and 1.013
Rictor_pT1135.R.V normalized RPPA signal [1]: 1.047 and 0.998 and 1.024 and 1.023
S6.M.V normalized RPPA signal [1]: 1.120 and 0.958 and 1.452
S6_pS235_S236.R.V normalized RPPA signal [1]: 1.127 and 0.835 and 1.012 and 0.991
S6_pS240_S244.R.V normalized RPPA signal [1]: 0.956 and 0.805 and 0.753 and 0.838
SCD.M.V normalized RPPA signal [1]: 0.971 and 0.991 and 1.085 and 1.016
SDHA.R.V normalized RPPA signal [1]: 1.033 and 1.016 and 1.031
SF2.R.V normalized RPPA signal [1]: 0.946 and 0.943 and 1.034 and 0.974
SFRP1.R.V normalized RPPA signal [1]: 0.931 and 0.917 and 0.927 and 0.925
SGK1.R.V normalized RPPA signal [1]: 1.122 and 0.983 and 1.065
SGK3.R.V normalized RPPA signal [1]: 0.809 and 0.879 and 0.966 and 0.885
SHP2.R.V normalized RPPA signal [1]: 0.965 and 0.955 and 0.959 and 0.960
SHP.2_pY542.R.C normalized RPPA signal [1]: 1.007 and 1.103 and 0.995 and 1.035
SIRPαR.V normalized RPPA signal [1]: 0.995 and 0.945 and 0.836 and 0.925
SLC1A5.R.C normalized RPPA signal [1]: 1.053 and 0.972
SOD1.M.V normalized RPPA signal [1]: 0.959 and 1.035 and 0.980
SOD2.R.V normalized RPPA signal [1]: 1.012 and 1.026 and 0.995
SOX7.R.V normalized RPPA signal [1]: 0.939 and 1.028 and 0.910 and 0.959
STING.R.V normalized RPPA signal [1]: 0.946 and 1.077 and 1.149 and 1.057
Shc_pY317.R.C normalized RPPA signal [1]: 0.575 and 1.701 and 1.009
Slfn11.G.C normalized RPPA signal [1]: 0.898 and 1.001 and 0.887 and 0.929
Smac.M.Q normalized RPPA signal [1]: 0.860 and 1.033 and 0.824 and 0.905
Smad1.R.V normalized RPPA signal [1]: 1.028 and 1.016 and 1.057 and 1.034
Smad3.R.V normalized RPPA signal [1]: 1.027 and 1.110 and 0.885 and 1.007
Smad4.R.V normalized RPPA signal [1]: 0.953 and 0.919 and 1.129 and 1.000
Snail.M.Q normalized RPPA signal [1]: 0.807 and 0.836 and 0.899 and 0.847
Sox2.R.V normalized RPPA signal [1]: 1.113 and 0.987 and 0.935 and 1.012
Sox17.R.V normalized RPPA signal [1]: 0.914 and 0.904 and 1.000 and 0.939
Src.M.V normalized RPPA signal [1]: 0.923 and 1.011 and 1.048 and 0.994
Src_pY416.R.V normalized RPPA signal [1]: 0.930 and 0.928 and 0.956
Src_pY527.R.V normalized RPPA signal [1]: 1.055 and 1.158 and 1.605 and 1.273
Stat1_pY701.R.V normalized RPPA signal [1]: 0.914 and 0.929 and 0.961 and 0.935
Stat3.R.C normalized RPPA signal [1]: 0.970 and 0.910 and 0.975
Stat3_pY705.R.C normalized RPPA signal [1]: 1.031 and 0.914 and 0.997 and 0.980
Stat5a.R.V normalized RPPA signal [1]: 0.989 and 1.022 and 1.028 and 1.013
Stathmin.1.R.V normalized RPPA signal [1]: 1.025 and 1.018 and 0.975 and 1.006
Syk.M.V normalized RPPA signal [1]: 0.694 and 0.899 and 1.030 and 0.874
Synaptophysin.R.C normalized RPPA signal [1]: 0.918 and 0.774 and 1.022 and 0.904
TAZ.R.V normalized RPPA signal [1]: 0.970 and 1.124 and 0.886 and 0.994
TEAD.R.C normalized RPPA signal [1]: 0.913 and 0.942 and 0.954 and 0.936
TFAM.R.V normalized RPPA signal [1]: 0.945 and 1.024 and 1.101 and 1.023
TFRC.R.V normalized RPPA signal [1]: 0.905 and 0.974 and 0.942 and 0.940
TIGAR.R.V normalized RPPA signal [1]: 1.046 and 0.999 and 1.028
TRAP1.M.V normalized RPPA signal [1]: 0.917 and 0.980 and 0.909 and 0.935
TRIM24.R.C normalized RPPA signal [1]: 0.917 and 0.931 and 1.013 and 0.954
TRIM25.R.C normalized RPPA signal [1]: 0.925 and 1.108 and 1.361 and 1.131
TRIP13.R.V normalized RPPA signal [1]: 0.993 and 0.918 and 0.936
Tau.M.C normalized RPPA signal [1]: 1.003 and 0.977 and 1.007
Transglutaminase.M.V normalized RPPA signal [1]: 1.143 and 1.434 and 0.745 and 1.107
A.Raf.R.V RPPA signal, normalized [2]: 1.063 and 0.973 and 1.128 and 1.055
A.Raf_pS299.R.C RPPA signal, normalized [2]: 0.910 and 0.929 and 0.996 and 0.945
ACC1.R.C RPPA signal, normalized [2]: 1.079 and 1.112
ACC_pS79.R.V RPPA signal, normalized [2]: 0.996 and 1.006 and 1.005 and 1.002
ACLY_pS455.R.V RPPA signal, normalized [2]: 0.993 and 1.161 and 0.844 and 0.999
ACSL1.R.V RPPA signal, normalized [2]: 0.995 and 0.806 and 0.904
ACVRL1.R.C RPPA signal, normalized [2]: 0.940 and 0.993 and 0.936 and 0.956
ADAR1.M.V RPPA signal, normalized [2]: 0.990 and 0.970 and 1.080 and 1.013
ALKBH5.R.V RPPA signal, normalized [2]: 1.026 and 1.137 and 0.879 and 1.014
AMPK.a2_pS345.R.V RPPA signal, normalized [2]: 0.974 and 1.081 and 1.055
AMPKa.R.C RPPA signal, normalized [2]: 1.048
AMPKa_pT172.R.C RPPA signal, normalized [2]: 1.029 and 0.832 and 0.850 and 0.903
AR.R.V RPPA signal, normalized [2]: 1.053 and 0.956 and 1.050 and 1.020
ARID1A.R.C RPPA signal, normalized [2]: 1.008 and 1.012 and 1.065
ASNS.R.V RPPA signal, normalized [2]: 1.454 and 1.206
ATM.R.V RPPA signal, normalized [2]: 0.983 and 1.033 and 1.311 and 1.109
ATM_pS1981.R.V RPPA signal, normalized [2]: 0.928 and 0.941 and 0.961 and 0.943
ATP5A.M.C RPPA signal, normalized [2]: 1.127 and 1.377 and 0.535 and 1.013
ATP5H.R.V RPPA signal, normalized [2]: 1.032 and 1.077 and 0.898 and 1.003
ATR.R.V RPPA signal, normalized [2]: 0.945 and 0.970 and 0.954
